Measured values: patent US6468991B1, “Method of treating rhinoviral infections” (Cyclis Pharmaceuticals, Inc., priority 1997, dated 2002)
Where two headings read alike, the source gives them in different places.

How the values were obtained:
Rhinovirus Type 2 = test: Rhinovirus yield reduction assay; conditions: for ED50 (virus yield): second experiment
[1] = tested on: A-549 (human lung carcinoma) cells; test: Cytotoxicity by microscopic morphological changes in uninfected toxicity control wells
[2] = tested on: Rhinovirus (RV) type 2, strain GPH; test: Cytopathogenic effect (CPE) inhibition assay; conditions: for EC50: A549 cells
[3] = drug present without medium change

EC50 ([2]; Enterovirus, A549, 72 h, read-out: ED50, Expt. 2, 3 days' incubation at 37° C., drug present without medium change) [µM]	EC50 ([2]; Enterovirus, A549, 120 h, read-out: ED50, Expt. 1, 5 days' incubation at 37° C., drug present without medium change) [µM]	EC50 ([2]; Enterovirus, A549, read-out: ED50, Expt. 1, 5 days' incubation at 37° C., drug changed every 24 hours) [µM]	EC50 ([2]; Enterovirus, A549, read-out: ED50, Expt. 2, 3 days' incubation at 37° C., drug changed every 24 hours) [µM]	Molecule	conclusion on inhibition of type 2 rhinovirus (Rhinovirus Type 2; overall conclusion from CPE and virus yield results)	ED90 concentration (virus yield) (Rhinovirus Type 2; same whether compound left on the cells or freshly added daily) [µM]	ED50 (virus yield) (Rhinovirus Type 2; drug changed every 24 hours) [µM]	ED50 (virus yield) (Rhinovirus Type 2; [3]) [µM]	cytotoxicity observed ([1]; both experiments, A549 cells)	inhibition of viral CPE ([2]; both methods, both experiments, compared with ribavirin)	EC50 ([2]; read-out: ED50, Expt. 1, 5 days' incubation at 37° C., drug changed every 24 hours) [µM]	EC50 ([2]; read-out: ED50, Expt. 1, 5 days' incubation at 37° C., drug present without medium change) [µM]	EC50 ([2]; read-out: ED50, Expt. 2, 3 days' incubation at 37° C., drug changed every 24 hours) [µM]	EC50 ([2]; read-out: ED50, Expt. 2, 3 days' incubation at 37° C., drug present without medium change) [µM]	CD50 ([1]; Expt. 1, 5 days' incubation at 37° C., drug changed every 24 hours, A549 cells) [µM]	CD50 ([1]; Expt. 1, 5 days' incubation at 37° C., drug present without medium change, A549 cells) [µM]	CD50 ([1]; Expt. 2, 3 days' incubation at 37° C., drug changed every 24 hours, A549 cells) [µM]	CD50 ([1]; Expt. 2, 3 days' incubation at 37° C., drug present without medium change, A549 cells) [µM]	CD50 ([1]; Table 2, second experiment, drug changed every 24 hours) [µM]	CD50 ([1]; Table 2, second experiment, drug present without medium change) [µM]
				2′,3′-cyclophosphateadenylyl(2′,5′)adenylyl-(2′,5′)adenosine [Papirine AIII]	significant inhibitor of type 2 rhinovirus	8	8	8	no cytotoxicity was observed	significant inhibition of viral CPE was seen that exceeded the activity of the known positive inhibitor, ribavirin	24	25	63	63						
410	610	1190	186	NC(=O)c1ncn([C@@H]2O[C@H](CO)[C@@H](O)[C@H]2O)n1 [Ribavirin]			102	53							2290	2290	740	740	740	740
